In ChEMBL document CHEMBL2074114, “Inhibitory effect of novel oral hypoglycemic agent nateglinide (AY4166) on peptide transporters PEPT1 and PEPT2” (Eur J Pharmacol, 2000):
Values belong to the compound of their own block, whether it stands above or below them.

Tests used:
Assay type in all cases: functional, cell-based
[1] = target: T1, Solute carrier family 15 member 2 (Rattus norvegicus, UniProt Q63424); assay: TP_TRANSPORTER: inhibition of Gly-Sar uptake (Gly-Sar: 20 uM) in PEPT2-expressing LLC-PK1 cells
T1 sequence (Q63424 whole entry): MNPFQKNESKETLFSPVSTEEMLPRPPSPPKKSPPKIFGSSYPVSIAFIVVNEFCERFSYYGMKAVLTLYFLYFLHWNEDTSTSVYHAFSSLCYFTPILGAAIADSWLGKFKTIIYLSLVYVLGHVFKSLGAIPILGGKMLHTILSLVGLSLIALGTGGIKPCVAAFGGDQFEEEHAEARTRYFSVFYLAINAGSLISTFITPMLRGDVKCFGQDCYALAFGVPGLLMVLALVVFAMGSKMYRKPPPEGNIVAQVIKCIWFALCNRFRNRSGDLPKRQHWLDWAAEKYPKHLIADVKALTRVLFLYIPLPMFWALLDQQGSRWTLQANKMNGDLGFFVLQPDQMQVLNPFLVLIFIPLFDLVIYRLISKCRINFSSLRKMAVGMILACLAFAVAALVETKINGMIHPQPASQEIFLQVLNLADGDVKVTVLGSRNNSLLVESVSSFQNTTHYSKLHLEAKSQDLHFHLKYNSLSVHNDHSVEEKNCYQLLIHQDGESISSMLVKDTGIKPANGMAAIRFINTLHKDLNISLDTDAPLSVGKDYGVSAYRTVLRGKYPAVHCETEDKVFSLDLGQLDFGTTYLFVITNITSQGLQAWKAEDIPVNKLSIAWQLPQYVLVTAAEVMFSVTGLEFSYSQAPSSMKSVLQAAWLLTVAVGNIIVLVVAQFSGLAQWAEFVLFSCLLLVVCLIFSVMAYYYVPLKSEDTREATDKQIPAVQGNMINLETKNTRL

[2] = target: T2, Solute carrier family 15 member 1 (Rattus norvegicus, UniProt P51574); assay: TP_TRANSPORTER: inhibition of Gly-Sar uptake (Gly-Sar: 20 uM) in PEPT1-expressing LLC-PK1 cells
T2 sequence (P51574 whole entry): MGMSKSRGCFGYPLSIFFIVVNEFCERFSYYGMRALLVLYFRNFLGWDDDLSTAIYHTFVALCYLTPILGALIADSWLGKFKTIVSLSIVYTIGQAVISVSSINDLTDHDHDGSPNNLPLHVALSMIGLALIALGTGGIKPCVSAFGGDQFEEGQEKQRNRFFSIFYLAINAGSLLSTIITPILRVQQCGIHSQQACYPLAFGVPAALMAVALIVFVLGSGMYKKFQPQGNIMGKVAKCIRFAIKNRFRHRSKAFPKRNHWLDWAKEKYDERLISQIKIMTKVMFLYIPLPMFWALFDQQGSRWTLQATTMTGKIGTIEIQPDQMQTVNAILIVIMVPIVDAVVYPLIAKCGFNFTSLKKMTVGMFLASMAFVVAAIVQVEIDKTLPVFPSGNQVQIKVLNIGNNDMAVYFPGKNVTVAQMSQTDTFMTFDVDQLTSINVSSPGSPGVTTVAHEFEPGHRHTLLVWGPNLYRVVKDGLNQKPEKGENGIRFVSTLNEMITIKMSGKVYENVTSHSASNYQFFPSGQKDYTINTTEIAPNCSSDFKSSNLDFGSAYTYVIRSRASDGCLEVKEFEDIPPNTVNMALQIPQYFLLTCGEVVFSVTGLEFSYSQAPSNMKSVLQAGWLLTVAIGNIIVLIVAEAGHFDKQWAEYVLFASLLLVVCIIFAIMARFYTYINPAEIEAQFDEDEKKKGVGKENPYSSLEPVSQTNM

[3] = target: T3, Solute carrier family 15 member 2 (Rattus norvegicus) (UniProt Q63424); assay: TP_TRANSPORTER: uptake in PEPT2-expressing LLC-PK1 cells
T3 sequence (whole entry): T1 sequence (Q63424 whole entry)

[4] = target: T4, Solute carrier family 15 member 1 (Rattus norvegicus) (UniProt P51574); assay: TP_TRANSPORTER: uptake in PEPT1-expressing LLC-PK1 cells
T4 sequence (whole entry): T2 sequence (P51574 whole entry)

[5] = target: T3, Solute carrier family 15 member 2 (Rattus norvegicus); assay: TP_TRANSPORTER: inhibition of Gly-Sar uptake (Gly-Sar: 20 uM, Chlorpropamide: 1000uM) in PEPT2-expressing LLC-PK1 cells
[6] = target: T4, Solute carrier family 15 member 1 (Rattus norvegicus); assay: TP_TRANSPORTER: inhibition of Gly-Sar uptake (Gly-Sar: 20 uM, Chlorpropamide: 1000uM) in PEPT1-expressing LLC-PK1 cells
[7] = target: T3, Solute carrier family 15 member 2 (Rattus norvegicus); assay: TP_TRANSPORTER: inhibition of Gly-Sar uptake (Gly-Sar: 20 uM, Tolbutamide: 1000uM) in PEPT2-expressing LLC-PK1 cells
[8] = target: T4, Solute carrier family 15 member 1 (Rattus norvegicus); assay: TP_TRANSPORTER: inhibition of Gly-Sar uptake (Gly-Sar: 20 uM, Tolbutamide: 1000uM) in PEPT1-expressing LLC-PK1 cells

- IC50 [1]: 70 µM
- IC50 [2]: 160 µM
- Activity [3]: is not a substrate [-]
- Activity [4]: is not a substrate [-]
Structure (SMILES): CC(C)[C@H]1CC[C@H](C(=O)N[C@H](Cc2ccccc2)C(=O)O)CC1 [NATEGLINIDE]

- Activity [5]: inhibitor [+]
- Activity [6]: inhibitor [+]
Structure (SMILES): CCCNC(=O)NS(=O)(=O)c1ccc(Cl)cc1

- Activity [7]: inhibitor [+]
- Activity [8]: inhibitor [+]
Structure (SMILES): CCCCNC(=O)NS(=O)(=O)c1ccc(C)cc1
